Results reported in patent US6858580B2, “Mixtures of drug-oligomer conjugates comprising polyalkylene glycol, uses thereof, and methods of making same” (Nobex Corporation, priority 2001, dated 2005).

Legend:
[1] = Enzymatic stability: chymotrypsin digest of calcitonin-oligomer conjugates; format: in vitro ADME
Method: Compounds, supplied as lyophilized powders, are resuspended in 10 mM phosphate buffer pH 7.4 and then submitted for concentration determination by HPLC. The phosphate buffer is used to create a solution with a pH that is optimum for activity of each particular gut enzyme. Aliquots of the compound thus prepared are transferred to 1.7 mL microcentrifuge tubes and shaken in a 37° C. water bath for 15 minutes to allow compounds to equilibrate to temperature. After 15 minutes, 2 μL of the appropriate concentrated gut enzyme is added to each tube to achieve the final concentration desired. Chymotrypsin and trypsin are resuspended in 1 mM HCl. Also, as a control, compounds are treated with 2 μL of 1 mM HCl. Immediately following additions, 100 μL of sample is removed from the control tube and quenched with either 25 μL of chymotrypsin/trypsin quenching solution (1:1 1% TFA:Isopropanol). This sample will serve as T=0 min. A sampling procedure is repeated at various time intervals depending on the gut enzyme used. […] Trypsin has 30, 60, 120 and 180 minute samples. Once all points have been acquired, a final sample is removed from the control tube to make sure that observed degradation is not temperature or buffer related. […] RP-BPLC (acetonitrile gradient) is used to determine AUC for each sample and % degradation is calculated based from the T=0 min control. […]

[2] = tested on: normal fasted beagle dogs; assay: Activity and inter-subject variability, oral liquid formulation, fasted beagle dogs; format: in vivo; conditions: 0.25 mg/kg oral liquid, fasted beagles, blood glucose
Text: As yet another example, a substantially monodispersed mixture of drug-oligomer conjugates preferably has an inter-subject variability that is less than the inter-subject variability of a polydispersed mixture of drug-oligomer conjugates having the same number average molecular weight as the substantially monodispersed mixture. As will be understood by those skilled in the art, the number average molecular weight of the substantially monodispersed mixture and the number average weight of the polydispersed mixture may be measured by various methods including, but not limited to, size exclusion chromatography. The inter-subject variability may be measured by various methods as will be understood by those skilled in the art. The inter-subject variability is preferably calculated as follows. The area under a dose response curve (AUC) (i.e., the area between the dose-response curve and a baseline value) is determined for each subject. The average AUC for all subjects is determined by summing the AUCs of each subject and dividing the sum by the number of subjects. The absolute value of the difference between the subject's AUC and the average AUC is then determined for each subject. The absolute values of the differences obtained are then summed to give a value that represents the inter-subject variability. Lower values represent lower inter-subject variabilities and higher values represent higher inter-subject variabilities.
An effective animal model for evaluating formulations uses normal fasted beagle dogs. These dogs are given 0.25 mg/kg of insulin conjugates to evaluate the efficacy of various formulations.
The protocol for dog experiments calls for a blood glucose measurement at time zero just before a drug is administered. The oral liquid dosage formulation is then squirted into the back of the dog's mouth. In each case, the dogs received 0.25 mg/kg of this solution. Blood is drawn at 15, 30, 60 and 120 minutes and glucose levels are measured and graphed. The lower the glucose levels, the better the activity of the insulin conjugate.

[3] = Enzymatic stability: trypsin digest of calcitonin-oligomer conjugates; format: in vitro ADME; conditions: 10 mM phosphate buffer, control tube without enzyme, pH 7.4, Control tube (1 mM HCl, no enzyme)
Method: Compounds, supplied as lyophilized powders, are resuspended in 10 mM phosphate buffer pH 7.4 and then submitted for concentration determination by HPLC. The phosphate buffer is used to create a solution with a pH that is optimum for activity of each particular gut enzyme. Aliquots of the compound thus prepared are transferred to 1.7 mL microcentrifuge tubes and shaken in a 37° C. water bath for 15 minutes to allow compounds to equilibrate to temperature. After 15 minutes, 2 μL of the appropriate concentrated gut enzyme is added to each tube to achieve the final concentration desired. Chymotrypsin and trypsin are resuspended in 1 mM HCl. Also, as a control, compounds are treated with 2 μL of 1 mM HCl. Immediately following additions, 100 μL of sample is removed from the control tube and quenched with either 25 μL of chymotrypsin/trypsin quenching solution (1:1 1% TFA:Isopropanol). This sample will serve as T=0 min. A sampling procedure is repeated at various time intervals depending on the gut enzyme used. Chymotrypsin has 15, 30 and 60 minute samples. Trypsin has 30, 60, 120 and 180 minute samples. Once all points have been acquired, a final sample is removed from the control tube to make sure that observed degradation is not temperature or buffer related. The chymotrypsin and trypsin samples may be collected directly into HPLC vials. RP-BPLC (acetonitrile gradient) is used to determine AUC for each sample and % degradation is calculated based from the T=0 min control. The results are provided below in Tables 1 to 4.

Male CF-1 mice = assay: Serum calcium lowering after single oral dose in fasted mice; format: in vivo; conditions: single oral dose 2.0 μg/kg, average serum calcium
Method: Male CF-1 mice (Charles River, Raleigh, N.C.) weighing […] were housed in the Nobex vivarium in a light—(L:D cycle of 12:12, lights on at 0600 h), temperature—(21-23° C.), and humidity—(40-60% relative humidity) controlled room. Animals were permitted free access to laboratory chow (PMI Nutrition) and tap water. Mice were allowed to acclimate to housing conditions for 48-72 hours prior to the day of experiment.
Prior to dosing, mice were fasted overnight and water was provided ad libitum. Mice were randomly distributed into groups of five animals per time point and were administered a single oral dose of a PEG7-octyl-sCT, diconjugate (Octyl Di) according to the present invention or salmon calcitonin (sCT or Calcitonin) for comparison purposes. […]
At appropriate time points, mice were ether-anesthetized, the vena cavae exteriorized, and blood samples were obtained via a syringe fitted with a 25-gauge needle. […] Total serum calcium was determined for each animal using a calibrated Vitros DT60 II analyzer.
Serum calcium data were plotted and pharmacokinetic parameters determined via curve-fitting techniques using SigmaPlot software Version 4.1). Means and standard deviations (or standard errors) were calculated and plotted to determine effect differences among dosing groups.

Compound | activity (glucose lowering) versus polydispersed PEG7AVG-hexyl-insulin, monoconjugate [2] | inter-subject variability versus polydispersed PEG7AVG-hexyl-insulin, monoconjugate [2] | also measured
CC(C)C[C@H](NC(=O)[C@H](CCCCN)NC(=O)CNC(=O)[C@H](CC(C)C)NC(=O)[C@@H](NC(=O)[C@@H]1CSSC[C@H](N)C(=O)N[C@@H](CO)C(=O)N[C@@H](CC(N)=O)C(=O)N[C@@H](CC(C)C)C(=O)N[C@@H](CO)C(=O)N[C@@H]([C@@H](C)O)C(=O)N1)C(C)C)C(=O)N[C@@H](CO)C(=O)N[C@@H](CCC(N)=O)C(=O)N[C@@H](CCC(=O)O)C(=O)N[C@@H](CC(C)C)C(=O)N[C@@H](Cc1c[nH]cn1)C(=O)N[C@@H](CCCCN)C(=O)N[C@@H](CC(C)C)C(=O)N[C@@H](CCC(N)=O)C(=O)N[C@H](C(=O)N[C@@H](Cc1ccc(O)cc1)C(=O)N1CCC[C@H]1C(=O)N[C@@H](CCCNC(=N)N)C(=O)N[C@H](C(=O)N[C@@H](CC(N)=O)C(=O)N[C@H](C(=O)NCC(=O)N[C@@H](CO)C(=O)NCC(=O)N[C@H](C(=O)N1CCC[C@H]1C(N)=O)[C@@H](C)O)[C@@H](C)O)[C@@H](C)O)[C@@H](C)O [Salmon Calcitonin, salmon calcitonin, reference compound] |  |  | remaining at 10 min ([1]; chymotrypsin (0.5 U/mL) in phosphate buffer, pH 7.4, Non-Formulated, time 10 min, pH 7.4, 37° C., read-out: % Remaining Following 0.5 U/mL Chymotrypsin Digest): 73%
PEG10-hexyl-insulin, monoconjugate: non-polydispersed mixture of mPEG10-hexyl-insulin, B29 monoconjugates | higher activity | less inter-subject variability | 
PEG4-hexyl-insulin, monoconjugate: non-polydispersed mixture of mPEG4-hexyl-insulin, B29 monoconjugates | higher activity | less inter-subject variability | 
COCCOCCOCCOCCOCCOCCOCCOCCCCCCCC(=O)NCCCC[C@H](NC(=O)CNC(=O)[C@H](CC(C)C)NC(=O)[C@@H](NC(=O)[C@@H]1CSSC[C@H](N)C(=O)N[C@@H](CO)C(=O)N[C@@H](CC(N)=O)C(=O)N[C@@H](CC(C)C)C(=O)N[C@@H](CO)C(=O)N[C@@H]([C@@H](C)O)C(=O)N1)C(C)C)C(=O)N[C@@H](CC(C)C)C(=O)N[C@@H](CO)C(=O)N[C@@H](CCC(N)=O)C(=O)N[C@@H](CCC(=O)O)C(=O)N[C@@H](CC(C)C)C(=O)N[C@@H](Cc1c[nH]cn1)C(=O)N[C@@H](CCCCNC(=O)CCCCCCCOCCOCCOCCOCCOCCOCCOCCOC)C(=O)N[C@@H](CC(C)C)C(=O)N[C@@H](CCC(N)=O)C(=O)N[C@H](C(=O)N[C@@H](Cc1ccc(O)cc1)C(=O)N1CCC[C@H]1C(=O)N[C@@H](CCCNC(=N)N)C(=O)N[C@H](C(=O)N[C@@H](CC(N)=O)C(=O)N[C@H](C(=O)NCC(=O)N[C@@H](CO)C(=O)NCC(=O)N[C@H](C(=O)N1CCC[C@H]1C(N)=O)[C@@H](C)O)[C@@H](C)O)[C@@H](C)O)[C@@H](C)O |  |  | remaining at 1 h ([1]; 10 mM phosphate buffer, control tube without enzyme, pH 7.4, Control tube (1 mM HCl, no enzyme), Non-Formulated, time 60 min): 104%; remaining at 1 h ([3]; time 60 min): 103%; remaining at 2 h ([3]; time 120 min): 106%; remaining at 3 h ([3]; time 180 min): 104%; % Baseline Calcium Drop at 2.0 μg/kg dose (Male CF-1 mice): 21.0%
PEG7-hexyl-insulin, monoconjugate: human insulin monoconjugated at the B29 position with the activated oligomer of Example 18 | higher activity | less inter-subject variability | 
